Test results taken from US20250262212A1, “COMPOSITION FOR SUPPRESSING PROLIFERATION OF CANCER STEM CELLS” (Chemiteras, Inc., priority 2022, published 2025).

Test system: cancer stem cells (12037NS)
Assay: Proliferation suppressive effect on cancer stem cells (survival rate, WST-8 / Cell Counting Kit-8)
Assay type: cell-based
Conditions: for Survival Rate(%) of cancer stem cells: DMSO control = 100; for proliferation suppressive effect on cancer stem cells (in words): 10 μM, 3 days, verbal assessment
Protocol: The proliferation suppressive effect of the triazolohalopyrimidine compounds on cancer stem cells was evaluated as follows.
The proliferation suppressive effect of triazolohalopyrimidine compounds on cancer stem cells was evaluated using commercially available anticancer agents and known compounds known to have antitumor effect.
12037NS was used as cancer stem cells. 12037NS are the cells obtained by isolation and purification according to the method referred in Nature 432, No. 18, 396-401 (2004). 12037NS cells are susceptible to cytotoxicity by DMSO (dimethylsulfoxide) used for dilution of test compounds. Accordingly, DMSO was used as control.
Used cancer stem cells were 12037NS which are cultivated cancer stem cells. 12037NS are the cells obtained by isolation and purification according to the method referred in Nature 432, No. 18, 396-401 (2004).
Cancer stem cells (12037NS) were seededat 3.0×10^3 cells/well in a 96-well plate using DMEM (Dulbeco's Modified Eagle Medium).
Test compounds shown in Table 3 were diluted with DMSO and then further diluted with PBS (phosphate buffered saline) to prepare test solutions. The test solution was added to each well to become a final concentration of 10 μM. For controls, DMSO was added to the wells to become a final concentration of 0.1% (v/v).
After adding the test solution, the plate was incubated at 37° C. in a 5% CO2 environment for 3 days.
After incubation, water-soluble tetrazonium salt WST-8 (“Cell Counting Kit-8” coloring reagent; manufactured by Dojindo Laboratories) was added at 10 μL/well to each well and the plate was placed in a 37° C., 5% CO2 environment, and incubated for 2 hours.
The absorbance at 450 nm wavelength was measured for the culture solution in each well of the plate after incubation. WST-8 is reduced by intracellular dehydrogenase to produce water-soluble formazan. The number of living cells can be measured by measuring the absorbance of this formazan at 450 nm.
The survival rate of cancer stem cells was determined by comparing the measured number of living cells with the number of seeded cells.
In the same manner as in [Test Example 1], the survival rate of cancer stem cells was determined for the test compounds shown in Table 4. Triazolohalopyrimidine compound (I)g means 2-(4-hydroxyphenyl)-5-chloro-8-methyl[1.2.4]triazolo[1,5-c]pyrimidine.

[1] = Test Example 1, test compound 10 μM, 3 days incubation
[2] = Test Example 2, same manner as Test Example 1 (10 μM, 3 days)

SMILES	Survival Rate(%) of cancer stem cells [1]	proliferation suppressive effect on cancer stem cells (in words)	Survival Rate(%) of cancer stem cells [2]
O=c1[nH]cc(F)c(=O)[nH]1 [5-Fluorouracil]	80%	–	–
Cc1cnc(Cl)n2nc(-c3ccc(Br)cc3)nc12 [Compound (I)d, 2-(4-bromophenyl)-5-chloro-8-methyl[1.2.4]triazolo[1,5-c]pyrimidine]	–	significantly superior to those of commercially available anticancer agents	–
Cc1cnc(Cl)n2nc(-c3ccc(Cl)c(Cl)c3)nc12 [Compound (I)f, 2-(3,4-dichlorophenyl)-5-chloro-8-methyl[1.2.4]triazolo[1,5-c]pyrimidine]	–	significantly superior to those of commercially available anticancer agents	–
Cc1cnc(Cl)n2nc(-c3ccc(O)cc3)nc12 [Compound (I)g, 2-(4-hydroxyphenyl)-5-chloro-8-methyl[1.2.4]triazolo[1,5-c]pyrimidine]	–	–	45%
Cn1nnc2c(C(N)=O)ncn2c1=O [Temozolomide]	65%	–	75%
